Assay results taken from ChEMBL document CHEMBL3751822, “C1C2-linker substituted 1,5-naphthyridine analogues of oxabicyclooctane-linked NBTIs as broad-spectrum antibacterial agents (part 7)” (Medchemcomm, 2015).

How the values were obtained:
Format in all cases: functional
Staphylococcus aureus [1] = assay: Antibacterial activity against quinolone-resistant Staphylococcus aureus MS5935 by micro-broth dilution method
Staphylococcus aureus [2] = assay: Antibacterial activity against quinolone-sensitive Staphylococcus aureus MS5935 by micro-broth dilution method
Staphylococcus aureus [3] = assay: Ratio of MIC for quinolone-resistant Staphylococcus aureus MS5935 to MIC for quinolone-sensitive Staphylococcus aureus MS5935

## C[C@H]1COc2c(N3CCN(C)CC3)c(F)cc3c(=O)c(C(=O)O)cn1c23.C[C@H]1COc2c(N3CCN(C)CC3)c(F)cc3c(=O)c(C(=O)O)cn1c23.O [LEVOFLOXACIN]
Staphylococcus aureus [1]
  MIC: > 16 µg/mL
Staphylococcus aureus [2]
  MIC: 0.26 µg/mL
Staphylococcus aureus [3]
  Ratio: >64
